Assays:
[1] = test system: hypertensive patients; conditions: added to the ACE inhibitor lisinopril; 37 hypertensive patients; cited from earlier work
[2] = molecular target: T1, NEP (EC.3.4.24.11) from human kidney (Homo sapiens, UniProt P08473); assay: IC50 against NEP; type: biochemical
T1 construct: determined using NEP (EC.3.4.24.11) from human kidney; from tissue; host or cells: human kidney
Method: IC50 values of the compounds of the invention against NEP and ACE were determined using methods described in published patent application EP1097719-A1, paragraphs [0368] to [0376]. The IC50 values presented below were determined using NEP (EC.3.4.24.11) from human kidney.

[3] = test system: hypertensive rats; conditions: cited from earlier work
[4] = test system: patients with essential hypertension; conditions: 24 black patients with essential hypertension; cited from earlier work

T1 sequence (P08473 whole entry): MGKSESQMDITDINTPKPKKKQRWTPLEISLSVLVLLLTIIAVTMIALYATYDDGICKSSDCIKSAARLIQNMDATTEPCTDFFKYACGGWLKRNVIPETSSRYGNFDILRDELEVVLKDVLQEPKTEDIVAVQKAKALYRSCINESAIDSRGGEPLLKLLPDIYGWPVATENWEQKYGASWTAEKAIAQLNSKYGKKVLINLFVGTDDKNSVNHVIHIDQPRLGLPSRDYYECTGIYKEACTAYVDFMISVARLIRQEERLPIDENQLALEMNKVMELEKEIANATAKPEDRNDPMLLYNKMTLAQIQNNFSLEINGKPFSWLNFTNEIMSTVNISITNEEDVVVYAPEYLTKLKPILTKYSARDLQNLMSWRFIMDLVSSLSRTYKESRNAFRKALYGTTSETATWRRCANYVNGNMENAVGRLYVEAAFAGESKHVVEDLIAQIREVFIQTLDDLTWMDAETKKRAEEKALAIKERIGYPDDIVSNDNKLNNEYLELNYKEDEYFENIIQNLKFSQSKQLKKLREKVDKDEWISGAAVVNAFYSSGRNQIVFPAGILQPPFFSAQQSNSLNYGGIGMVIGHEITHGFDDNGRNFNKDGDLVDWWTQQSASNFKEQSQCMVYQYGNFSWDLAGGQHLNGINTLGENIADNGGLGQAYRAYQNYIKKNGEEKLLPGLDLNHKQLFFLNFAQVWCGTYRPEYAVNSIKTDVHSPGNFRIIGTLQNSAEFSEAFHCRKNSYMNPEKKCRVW

Compound	IC50 [2] [nM]	further results
COCCOC[C@H](CC1(C(=O)N[C@H]2CC[C@@H](C(=O)O)CC2)CCCC1)C(=O)Oc1ccc2c(c1)CCC2 [candoxatril]		supine and erect blood pressure [1]: marked reduction in both supine and erect blood pressure
COCC[C@H](CC1(C(=O)N[C@@H](COCc2ccc(Cl)cc2)CC(=O)O)CCCC1)C(=O)O [Example 16, (2S)-2-[(1-{[((1R)-2-Carboxy-1-{[(4-chlorobenzyl)oxy]methyl}ethyl)amino]-carbonyl}cyclopentyl)methyl]-4-methoxybutanoic Acid]	8.2	
COCC[C@H](CC1(C(=O)N[C@@H](CCOc2ccc(Cl)cc2)CC(=O)O)CCCC1)C(=O)O [Example 48, (3S)-3-[({1-[(2S)-2-Carboxy-4-methoxybutyl]cyclopentyl}carbonyl)amino]-5-(4-chlorophenoxy)pentanoic Acid]	2.4	
COCC[C@H](CC1(C(=O)N[C@@H](CCCc2ccc(Cl)cc2)CC(=O)O)CCCC1)C(=O)O [Example 53, (3S)-3-[({1-[(2S)-2-carboxy-4-methoxybutyl]cyclopentyl}carbonyl)amino]-6-(4-chlorophenyl)hexanoic Acid]	0.7	
CCC[C@H](CC1(C(=O)N[C@@H](CCOc2ccc(Cl)cc2)CC(=O)O)CCCC1)C(=O)O [Example 41, (3S)-3-[({1-[(2R)-2-Carboxypentyl]cyclopentyl}carbonyl)amino]-5-(4-chlorophenoxy)pentanoic Acid]	6.3	
COCC[C@H](CC1(C(=O)N[C@@H](CCCc2ccc(OC)cc2)CC(=O)O)CCCC1)C(=O)O [Example 54, (3S)-3-[({1-[(2S)-2-carboxy-4-methoxybutyl]cyclopentyl}carbonyl)amino]-6-(4-methoxyphenyl)hexanoic Acid]	4.7	
COCCOC[C@H](CC1(C(=O)N[C@H]2CC[C@@H](C(=O)O)CC2)CCCC1)C(=O)O [candoxatrilat]		systolic blood pressure [3]: lowers systolic blood pressure
CC1(C)OCC(COC(=O)C(Cc2ccccc2)N[C@@H](Cc2ccccc2)C(=O)NCCC(=O)O)O1 (some centres unmarked) [SCH34826]		supine blood pressure [4]: significantly lowered supine blood pressure

— patent US7045653B2, “Pharmaceuticals” (Pfizer, Inc., priority 2003, dated 2006)
